“Also recorded” adds a separate entry of the source.
Columns and labels:
[1] = biological target: T1, androgen receptor N-terminal domain (Homo sapiens, UniProt P10275); assay: Inhibition of androgen receptor N-terminal domain transactivation (AR (1-558)-Gal4 DBD, luciferase); assay type: cell-based; conditions: LNCaP cells, compound 1 20 μm vs (Ac) 25 μm, 50 ng/ml IL-6; FIG. 2
T1 construct: AR (1-558)-Gal4 DBD; expressed in transfected cells; host or cells: LNCaP
T1 sequence (P10275 1-558): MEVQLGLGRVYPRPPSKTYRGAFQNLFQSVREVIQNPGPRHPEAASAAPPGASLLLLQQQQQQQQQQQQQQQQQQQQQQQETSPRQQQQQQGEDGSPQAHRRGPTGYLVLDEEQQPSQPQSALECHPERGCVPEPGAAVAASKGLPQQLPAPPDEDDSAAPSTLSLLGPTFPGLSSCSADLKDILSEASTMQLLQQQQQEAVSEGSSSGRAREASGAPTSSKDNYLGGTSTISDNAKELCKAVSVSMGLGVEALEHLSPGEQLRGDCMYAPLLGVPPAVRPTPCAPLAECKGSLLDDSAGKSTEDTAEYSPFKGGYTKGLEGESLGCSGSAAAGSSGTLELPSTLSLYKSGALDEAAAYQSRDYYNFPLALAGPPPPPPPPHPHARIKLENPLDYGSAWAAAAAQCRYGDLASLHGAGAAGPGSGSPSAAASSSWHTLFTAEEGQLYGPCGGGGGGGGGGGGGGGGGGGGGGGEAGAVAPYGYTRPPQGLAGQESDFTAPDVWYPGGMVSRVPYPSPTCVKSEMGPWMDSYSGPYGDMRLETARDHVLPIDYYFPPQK
Experimental: Inhibition of androgen receptor N-terminal domain transactivation was determined as follows.

[2] = tested on: VCaP xenografts; assay: Growth inhibition of VCaP xenografts in castrated mice; assay type: in vivo; conditions: castrated NOD-SCID mice, 50 mg/kg i.v. every other day, seven doses; compared to (Ac); FIGS. 3, 4
Experimental: Growth inhibition of VCaP xenografts in castrated mice was determined as follow. Male NOD-SCID mice bearing subcutaneous VCaP tumors were castrated when tumor volume was ˜100 mm^3. […] The experiment ended two days after the last dose. Change in tumor volume was determined as the change at day 14 compared to the day of 1st injection. DMSO was used as the vehicle control.

[3] = tested on: LNCaP cells; assay: Inhibition of androgen-dependent proliferation, AlamarBlue Proliferation Assay; assay type: cell-based, human; conditions: 0.1 nM R1881, 3 days; compared to comparative compound (Ac); FIGS. 1A and 1B
Experimental: LNCaP human prostate cancer cells were maintained in phenol red-free RPMI 1640 medium with 0.5% (v/v) fetal bovine serum, while PC3 human prostate cancer cells were cultured in phenol red DMEM medium with 0.5% (v/v) fetal bovine serum at 37° C. […] LNCaP cells were incubated for 72 hours with R1881, while the duration of the experiment was 48 hours for PC3 cells. AlamarBlue reagent was added to the cells prior to incubation and measuring fluorescence at 570 nm.

[4] = biological target: T2, AR (Homo sapiens, UniProt P10275); assay: ARR3-luciferase reporter assay of AR transcriptional activity; assay type: cell-based
T2 sequence (P10275 1-920 T878A): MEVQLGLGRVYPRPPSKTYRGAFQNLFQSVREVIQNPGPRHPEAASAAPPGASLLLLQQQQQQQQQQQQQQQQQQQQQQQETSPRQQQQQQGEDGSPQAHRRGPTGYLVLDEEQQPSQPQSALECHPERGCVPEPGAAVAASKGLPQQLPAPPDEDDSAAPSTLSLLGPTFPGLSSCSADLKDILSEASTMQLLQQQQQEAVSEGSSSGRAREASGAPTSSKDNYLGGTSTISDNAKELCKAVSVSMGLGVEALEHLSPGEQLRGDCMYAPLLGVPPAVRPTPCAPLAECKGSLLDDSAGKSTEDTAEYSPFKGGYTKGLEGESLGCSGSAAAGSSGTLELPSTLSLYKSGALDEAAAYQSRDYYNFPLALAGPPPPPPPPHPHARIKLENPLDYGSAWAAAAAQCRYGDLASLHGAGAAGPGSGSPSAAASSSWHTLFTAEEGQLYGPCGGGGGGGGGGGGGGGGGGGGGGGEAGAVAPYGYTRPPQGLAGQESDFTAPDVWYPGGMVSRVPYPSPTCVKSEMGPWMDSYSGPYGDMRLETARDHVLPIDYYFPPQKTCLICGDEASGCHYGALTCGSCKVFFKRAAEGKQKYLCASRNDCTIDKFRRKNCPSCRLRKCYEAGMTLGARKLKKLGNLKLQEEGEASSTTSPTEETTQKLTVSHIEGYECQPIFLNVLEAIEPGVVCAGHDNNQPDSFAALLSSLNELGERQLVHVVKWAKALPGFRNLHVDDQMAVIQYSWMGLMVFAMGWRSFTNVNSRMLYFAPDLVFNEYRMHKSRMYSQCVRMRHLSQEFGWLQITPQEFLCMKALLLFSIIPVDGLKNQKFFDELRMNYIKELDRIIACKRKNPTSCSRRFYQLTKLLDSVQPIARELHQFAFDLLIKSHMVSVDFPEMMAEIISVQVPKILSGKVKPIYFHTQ

[5] = biological target: T2, AR; assay: PSA-luciferase reporter assay of AR transcriptional activity; assay type: cell-based; conditions: for PSA-Luc activity (%) mean ± SD: PSA-luciferase reporter
[6] = biological target: T2, AR; assay: probasin (PB)-luciferase reporter assay of AR transcriptional activity; assay type: cell-based
[7] = tested on: LNCaP CRPC xenograft; assay: LNCaP CRPC xenograft model, antitumor activity; assay type: in vivo, mice; conditions: for CRPC tumor growth / antitumor activity (in words): compared to DMSO control or to other comparative compounds, FIGS. 6, 7
[8] = Body weight of animals in LNCaP CRPC xenograft model; assay type: in vivo, mice; conditions: treated animals; FIG. 9

CC(C)(c1ccc(OCC(O)CF)cc1)c1ccc(OCC(O)CCl)cc1 (stereo not shown) [Compound 1, 1-chloro-3-(4-(2-(4-(3-fluoro-2-hydroxypropoxy)phenyl)propan-2-yl)phenoxy)propan-2-ol]
inhibition of androgen receptor N-terminal domain transactivation (in words) [1]: more potent inhibition activity | change in tumor volume at day 14 (in words) [2]: increased loss in tumor volume | inhibition of androgen-dependent proliferation of LNCaP cells (in words) [3]: inhibits androgen-dependent proliferation of LNCaP cells at lower concentrations

CC(C)(c1ccc(OC[C@@H](O)CO)cc1)c1ccc(OC[C@@H](O)CCl)cc1 [(Ad)]
ARR3-Luc activity (%) mean ± SD [4]: 54.73 ± 12.99% | PSA-Luc activity (%) mean ± SD [5]: 33.55 ± 11.31% | PB-Luc activity (%) mean ± SD [6]: 54.72 ± 7.83%

CC(C)(c1ccc(OC[C@H](O)CF)cc1)c1ccc(OC[C@H](O)CCl)cc1 [Compound 1c, (S)-1-chloro-3-(4-(2-(4-((S)-3-fluoro-2-hydroxypropoxy)phenyl)propan-2-yl)phenoxy)propan-2-ol]
change in tumor volume at day 14 (in words) [2]: increased loss in tumor volume

CC(C)(c1ccc(OC[C@H](O)CO)cc1)c1ccc(OC[C@@H](O)CCl)cc1 [(Aa)]
ARR3-Luc activity (%) mean ± SD [4]: 66.44 ± 31.59% | PSA-Luc activity (%) mean ± SD [5]: 45.16 ± 29.13% | PB-Luc activity (%) mean ± SD [6]: 66.44 ± 12.47%

CC(C)(c1ccc(OC[C@@H](O)CF)cc1)c1ccc(OC[C@@H](O)CCl)cc1 [Compound 1d, (R)-1-chloro-3-(4-(2-(4-((R)-3-fluoro-2-hydroxypropoxy)phenyl)propan-2-yl)phenoxy)propan-2-ol]
change in tumor volume at day 14 (in words) [2]: increased loss in tumor volume

CC(C)(c1ccc(OCC(O)CO)cc1)c1ccc(OCC(O)CCl)cc1 (stereo not shown) [(A)]
ARR3-Luc activity (%) mean ± SD [4]: 63.96 ± 14.57% | PSA-Luc activity (%) mean ± SD [5]: 36.91 ± 16.46% | PB-Luc activity (%) mean ± SD [6]: 63.96 ± 13.70%

CC(C)(c1ccc(OC[C@H](O)CCl)cc1)c1ccc(OC[C@@H](O)CO)cc1 [(Ab)]
ARR3-Luc activity (%) mean ± SD [4]: 43.68 ± 15.16% | PSA-Luc activity (%) mean ± SD [5]: 24.49 ± 13.20% | animals in which tumor regression was attained ([7]; FIG. 8): 60% | CRPC tumor growth / antitumor activity (in words) [7]: better antitumor activity | loss of body weight (in words) [8]: some losses | PB-Luc activity (%) mean ± SD [6]: 43.70 ± 9.98%

CC(C)(c1ccc(OC[C@H](O)CO)cc1)c1ccc(OC[C@H](O)CCl)cc1 [(Ac)]
ARR3-Luc activity (%) mean ± SD [4]: 41.58 ± 14.82% | inhibition of transcriptional activity of AR (in words) ([5]; PSA-, probasin (PB)- and ARR3-luciferase reporters, Table 3): best activity of all the comparative compounds | PSA-Luc activity (%) mean ± SD [5]: 24.33 ± 13.63% | extent of tumor regression (in words) ([7]; (Ac) versus (Ab), FIG. 8): greater regression | animals in which tumor regression was attained ([7]; FIG. 8): 60% | CRPC tumor growth / antitumor activity (in words) [7]: better antitumor activity; also recorded: most potent and least toxic of the comparative compounds | loss of body weight (in words) [8]: No loss of body weight | PB-Luc activity (%) mean ± SD [6]: 41.58 ± 6.63%

— US20130045204A1, “FLUORINATED BISPHENOL ETHER COMPOUNDS AND METHODS FOR THEIR USE” (The University of British Columbia, priority 2011, published 2013)
